Results published in patent US12590091B2, “1H-pyrrolo[3,2-C]pyridine and 1H-pyrrolo[2,3-C]pyridine derivatives as TLR9 inhibitors for the treatment of fibrosis” (BRISTOL-MYERS SQUIBB COMPANY, priority 2020, dated 2026).

Experiments:
human TLR9 = target: T1, human TLR9 (Homo sapiens, UniProt Q9NR96); assay: TLR9 inhibition reporter assay (HEK-Blue cells, SEAP reporter); assay type: cell-based; details: HEK-Blue cells overexpressing human TLR9, stimulated with ODN2006 5 nM, 22 hour incubation
T1 construct: host or cells: HEK-Blue cells
T1 sequence (Q9NR96 26-1032): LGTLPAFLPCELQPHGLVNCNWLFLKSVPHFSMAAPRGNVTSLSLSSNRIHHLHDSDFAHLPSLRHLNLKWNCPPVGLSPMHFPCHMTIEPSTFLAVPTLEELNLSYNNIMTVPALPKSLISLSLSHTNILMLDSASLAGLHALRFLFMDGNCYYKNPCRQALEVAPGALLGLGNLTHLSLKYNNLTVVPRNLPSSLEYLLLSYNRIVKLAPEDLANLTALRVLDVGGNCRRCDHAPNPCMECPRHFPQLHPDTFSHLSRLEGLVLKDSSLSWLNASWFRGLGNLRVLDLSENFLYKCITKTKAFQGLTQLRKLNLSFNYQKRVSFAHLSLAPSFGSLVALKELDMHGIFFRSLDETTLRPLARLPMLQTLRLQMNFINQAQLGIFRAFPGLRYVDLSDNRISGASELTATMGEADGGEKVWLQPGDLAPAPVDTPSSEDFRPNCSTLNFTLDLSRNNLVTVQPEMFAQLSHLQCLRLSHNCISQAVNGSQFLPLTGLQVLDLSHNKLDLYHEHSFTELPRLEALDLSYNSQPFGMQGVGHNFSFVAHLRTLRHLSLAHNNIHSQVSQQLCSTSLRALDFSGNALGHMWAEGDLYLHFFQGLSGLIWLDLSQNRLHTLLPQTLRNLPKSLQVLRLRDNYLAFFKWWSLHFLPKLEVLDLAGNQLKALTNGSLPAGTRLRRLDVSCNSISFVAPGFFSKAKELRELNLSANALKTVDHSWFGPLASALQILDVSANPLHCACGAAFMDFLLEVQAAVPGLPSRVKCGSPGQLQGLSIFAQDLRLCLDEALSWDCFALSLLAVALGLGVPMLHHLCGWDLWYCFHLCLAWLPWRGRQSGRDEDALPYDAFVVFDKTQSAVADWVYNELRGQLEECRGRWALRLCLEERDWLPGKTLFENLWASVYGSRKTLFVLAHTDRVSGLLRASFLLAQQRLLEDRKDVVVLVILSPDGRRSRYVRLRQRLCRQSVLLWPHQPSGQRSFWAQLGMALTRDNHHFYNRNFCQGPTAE
Description: (§1) TLR7/8/9 Inhibition Reporter Assays
HEK-Blue™-cells (Invivogen) overexpressing human TLR7, TLR8 or TLR9 receptors were used for screening inhibitors of these receptors using an inducible SEAP (secreted embryonic alkaline phosphatase) reporter gene under the control of the IFN-β minimal promoter fused to five NF-κB and AP-1-binding sites. Briefly, cells are seeded into Greiner 384 well plates (15000 cells per well for TLR7, 20,000 for TLR8 and 25,000 for TLR9) and then treated with test compounds in DMSO to yield a final dose response concentration range of 0.05 nM-50 μM. […] After a 22 hour incubation at 37° C., 5% CO2, SEAP levels are determined with the addition of HEK-Blue™ Detection reagent (Invivogen), a cell culture medium that allows for detection of SEAP, according to manufacturer's specifications. The percent inhibition is determined as the % reduction in the HEK-Blue signal present in wells treated with agonist plus DMSO alone compared to wells treated with a known inhibitor.

human TLR8 = target: T2, human TLR8 (Homo sapiens, UniProt Q9NR97); assay: TLR8 inhibition reporter assay (HEK-Blue cells, SEAP reporter); assay type: cell-based; details: HEK-Blue cells overexpressing human TLR8, stimulated with R848 15.9 μM, 22 hour incubation
T2 construct: host or cells: HEK-Blue cells
T2 sequence (Q9NR97 27-1041): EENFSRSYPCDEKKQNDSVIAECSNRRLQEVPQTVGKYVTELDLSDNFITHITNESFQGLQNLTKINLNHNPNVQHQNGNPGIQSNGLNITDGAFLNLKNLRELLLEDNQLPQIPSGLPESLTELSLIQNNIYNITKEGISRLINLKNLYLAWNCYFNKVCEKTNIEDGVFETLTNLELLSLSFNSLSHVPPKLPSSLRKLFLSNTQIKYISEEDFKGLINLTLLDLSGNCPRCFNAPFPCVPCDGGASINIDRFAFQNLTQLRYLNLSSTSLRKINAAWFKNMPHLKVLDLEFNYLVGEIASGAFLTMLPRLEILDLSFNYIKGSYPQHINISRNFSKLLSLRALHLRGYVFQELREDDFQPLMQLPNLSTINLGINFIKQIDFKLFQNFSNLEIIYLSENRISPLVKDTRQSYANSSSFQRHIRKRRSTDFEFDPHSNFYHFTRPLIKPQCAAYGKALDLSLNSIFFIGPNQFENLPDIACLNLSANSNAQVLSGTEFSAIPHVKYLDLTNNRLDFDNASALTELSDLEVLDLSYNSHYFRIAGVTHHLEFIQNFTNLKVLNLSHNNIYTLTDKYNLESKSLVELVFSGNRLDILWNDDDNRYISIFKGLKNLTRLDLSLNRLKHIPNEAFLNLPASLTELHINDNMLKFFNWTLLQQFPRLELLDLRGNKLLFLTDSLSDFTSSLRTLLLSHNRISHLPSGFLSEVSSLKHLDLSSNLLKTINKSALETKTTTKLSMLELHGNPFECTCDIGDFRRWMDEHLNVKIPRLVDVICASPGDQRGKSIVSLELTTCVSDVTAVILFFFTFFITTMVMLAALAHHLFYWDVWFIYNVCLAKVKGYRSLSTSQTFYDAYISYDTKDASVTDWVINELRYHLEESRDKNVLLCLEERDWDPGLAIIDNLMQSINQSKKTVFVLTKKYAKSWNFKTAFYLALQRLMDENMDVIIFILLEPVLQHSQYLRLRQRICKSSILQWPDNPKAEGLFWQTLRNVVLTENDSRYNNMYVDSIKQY
Description: as §1
HEK-Blue™-cells (Invivogen) overexpressing human TLR7, TLR8 or TLR9 receptors were used for screening inhibitors of these receptors using an inducible SEAP (secreted embryonic alkaline phosphatase) reporter gene under the control of the IFN-β minimal promoter fused to five NF-κB and AP-1-binding sites. Briefly, cells are seeded into Greiner 384 well plates (15000 cells per well for TLR7, 20,000 for TLR8 and 25,000 for TLR9) and then treated with test compounds in DMSO to yield a final dose response concentration range of 0.05 nM-50 μM. After a 30 minute compound pre-treatment at room temperature, the cells are then stimulated with a TLR7 ligand (gardiquimod at a final concentration of 7.5 μM), TLR8 ligand (R848 at a final concentration of 15.9 μM) or TLR9 ligand (ODN2006 at a final concentration of 5 nM) to activate NF-κB and AP-1 which induce the production of SEAP. After a 22 hour incubation at 37° C., 5% CO2, SEAP levels are determined with the addition of HEK-Blue™ Detection reagent (Invivogen), a cell culture medium that allows for detection of SEAP, according to manufacturer's specifications. The percent inhibition is determined as the % reduction in the HEK-Blue signal present in wells treated with agonist plus DMSO alone compared to wells treated with a known inhibitor.

| Structure (SMILES) | IC50 (human TLR9) [nM] | IC50 (human TLR8) [nM] |
| --- | --- | --- |
| COc1ccc(-c2[nH]c3cnc(-c4ccc(N5CCN(C(C)C)CC5)cc4)cc3c2C)cc1OC [Example 1, 2-(3,4-Dimethoxyphenyl)-5-(4-(4-isopropylpiperazin-1-yl)phenyl)-3-methyl-1H-pyrrolo[2,3-c]pyridine] | 161 | 21000 |
| COc1ccc(-c2c(C)[nH]c3cnc(-c4ccc(N5CCN(C(C)C)CC5)cc4)cc23)cc1OC [Example 2, 3-(3,4-dimethoxyphenyl)-5-(4-(4-isopropylpiperazin-1-yl)phenyl)-2-methyl-1H-pyrrolo[2,3-c]pyridine] | 157 | 29000 |
| COc1ccc(-c2c(C)n(C)c3cnc(-c4ccc(N5CCN(CC(C)(C)O)CC5)cc4)cc23)cc1OC [Example 3, 1-(4-(4-(3-(3,4-Dimethoxyphenyl)-1,2-dimethyl-1H-pyrrolo[2,3-c]pyridin-5-yl)phenyl)piperazin-1-yl)-2-methylpropan-2-ol] | 82 | 37700 |
| COc1ccc(-c2c(C)[nH]c3cnc(C4CCN(c5cc(C)nc(C)c5)CC4)cc23)cc1OC [Example 6, 3-(3,4-Dimethoxyphenyl)-5-(1-(2,6-dimethylpyridin-4-yl)piperidin-4-yl)-2-methyl-1H-pyrrolo[2,3-c]pyridine] | 296 | 23300 |
| COc1ccc(-c2cc3cnc(-c4ccc(N5CCN(CC6CC6)CC5)cc4)cc3n2C)cc1OC [Example 9, 6-(4-(4-(Cyclopropylmethyl)piperazin-1-yl)phenyl)-2-(3,4-dimethoxyphenyl)-1-methyl-1H-pyrrolo[3,2-c]pyridine] | 21 | 1500 |
| COc1ccc(-c2cc3cnc(-c4ccc(N5CCN(C6CCC6)CC5)cc4)cc3n2C)cc1OC [Example 10, 6-(4-(4-Cyclobutylpiperazin-1-yl)phenyl)-2-(3,4-dimethoxyphenyl)-1-methyl-1H-pyrrolo[3,2-c]pyridine] | 66 | 5200 |
| COc1ccc(-c2c(C)c3cc(C4CCN(C5CCN(CC(C)C)CC5)CC4)ncc3n2C)cc1OC [Example 13, 2-(3,4-dimethoxyphenyl)-5-(1′-isobutyl-[1,4′-bipiperidin]-4-yl)-1,3-dimethyl-1H-pyrrolo[2,3-c]pyridine] | 191 | > 50000 |
| COc1ccc(-c2c(C)n(C)c3cnc(C4CCN(C5CCN(CC(C)C)CC5)CC4)cc23)cc1OC [Example 17, 3-(3,4-dimethoxyphenyl)-5-(1′-isobutyl-[1,4′-bipiperidin]-4-yl)-1,2-dimethyl-1H-pyrrolo[2,3-c]pyridine] | 19 | > 50000 |
| COc1ccc(-c2c(C)n(C)c3cnc(C4CCN(C5CCN(C(=O)c6ccccc6)CC5)CC4)cc23)cc1OC [Example 19, (4-(3-(3,4-dimethoxyphenyl)-1,2-dimethyl-1H-pyrrolo[2,3-c]pyridin-5-yl)-[1,4′-bipiperidin]-1′-yl)(phenyl)methanone] | 130 | > 50000 |

Results, then the compound that gave them:

| IC50 (human TLR9) [nM] | IC50 (human TLR8) [nM] | Structure (SMILES) |
| --- | --- | --- |
| 243 | 23500 | COc1ccc(-c2c(C)[nH]c3cnc(C4CCN(C5CCN(C(=O)OCc6ccccc6)CC5)CC4)cc23)cc1OC [Example 4, Benzyl 4-(3-(3,4-dimethoxyphenyl)-2-methyl-1H-pyrrolo[2,3-c]pyridin-5-yl)-[1,4′-bipiperidine]-1′-carboxylate] |
| 133 | > 50000 | COc1ccc(-c2c(C)[nH]c3cnc(C4CCN(C(=O)C5CCN(C6CC6)CC5)CC4)cc23)cc1OC [Example 5, (1-Cyclopropylpiperidin-4-yl)(4-(3-(3,4-dimethoxyphenyl)-2-methyl-1H-pyrrolo[2,3-c]pyridin-5-yl)piperidin-1-yl)methanone] |
| 313 | > 50000 | COc1ccc(-c2c(C)[nH]c3cnc(C4CCN(C5CCN(C(=O)c6ccccc6)CC5)CC4)cc23)cc1OC [Example 14, (4-(3-(3,4-dimethoxyphenyl)-2-methyl-1H-pyrrolo[2,3-c]pyridin-5-yl)-[1,4′-bipiperidin]-1′-yl) (phenyl)methanone] |
| 39 | > 50000 | COc1ccc(-c2c(C)[nH]c3cnc(C4CCN(C5CCN(C(=O)C(C)C)CC5)CC4)cc23)cc1OC [Example 15, 1-(4-(3-(3,4-dimethoxyphenyl)-2-methyl-1H-pyrrolo[2,3-c]pyridin-5-yl)-[1,4′-bipiperidin]-1′-yl)-2-methylpropan-1-one] |
| 84 | 47900 | COc1ccc(-c2c(C)[nH]c3cnc(C4CCN(C(=O)CN5CCCCC5)CC4)cc23)cc1OC [Example 16, 1-(4-(3-(3,4-dimethoxyphenyl)-2-methyl-1H-pyrrolo[2,3-c]pyridin-5-yl)piperidin-1-yl)-2-(piperidin-1-yl)ethan-1-one] |
| 194 | > 50000 | COc1ccc(-c2c(C)n(C)c3cnc(C4CCN(C5CCN(C(=O)C(C)C)CC5)CC4)cc23)cc1OC [Example 18, 1-(4-(3-(3,4-dimethoxyphenyl)-1,2-dimethyl-1H-pyrrolo[2,3-c]pyridin-5-yl)-[1,4′-bipiperidin]-1′-yl)-2-methylpropan-1-one] |
| 153 | > 50000 | CCOC(=O)N1CCC(N2CCC(c3cc4c(-c5ccc(OC)c(OC)c5)c(C)n(C)c4cn3)CC2)CC1 [Example 20, ethyl 4-(3-(3,4-dimethoxyphenyl)-1,2-dimethyl-1H-pyrrolo[2,3-c]pyridin-5-yl)-[1,4′-bipiperidine]-1′-carboxylate] |
